For nine compounds, inhibition results are on record in publication PMC9516332 (Frontiers in Oncology, 2022).

Assay in all cases: Kinase panel profiling at 1 µmol/L (MSA or IMAP), percentage inhibition
What all share (assay type): biochemical

Assay [1] concerns the target panel of 255 wild-type kinases (Homo sapiens, UniProt P53355). Conditions: kinase DAPK1; 1 µmol/L single concentration; read-out: %-inhibition at 1 µmol/L, DAPK1.
Assay [2] concerns the target panel of 255 wild-type kinases (Homo sapiens, UniProt P21802). Conditions: kinase FGFR2; 1 µmol/L single concentration; read-out: %-inhibition at 1 µmol/L, FGFR2.
Assay [3] has as its target T1, panel of 255 wild-type kinases (Homo sapiens, UniProt Q8NE63).
T1 sequence (Q8NE63 1-616): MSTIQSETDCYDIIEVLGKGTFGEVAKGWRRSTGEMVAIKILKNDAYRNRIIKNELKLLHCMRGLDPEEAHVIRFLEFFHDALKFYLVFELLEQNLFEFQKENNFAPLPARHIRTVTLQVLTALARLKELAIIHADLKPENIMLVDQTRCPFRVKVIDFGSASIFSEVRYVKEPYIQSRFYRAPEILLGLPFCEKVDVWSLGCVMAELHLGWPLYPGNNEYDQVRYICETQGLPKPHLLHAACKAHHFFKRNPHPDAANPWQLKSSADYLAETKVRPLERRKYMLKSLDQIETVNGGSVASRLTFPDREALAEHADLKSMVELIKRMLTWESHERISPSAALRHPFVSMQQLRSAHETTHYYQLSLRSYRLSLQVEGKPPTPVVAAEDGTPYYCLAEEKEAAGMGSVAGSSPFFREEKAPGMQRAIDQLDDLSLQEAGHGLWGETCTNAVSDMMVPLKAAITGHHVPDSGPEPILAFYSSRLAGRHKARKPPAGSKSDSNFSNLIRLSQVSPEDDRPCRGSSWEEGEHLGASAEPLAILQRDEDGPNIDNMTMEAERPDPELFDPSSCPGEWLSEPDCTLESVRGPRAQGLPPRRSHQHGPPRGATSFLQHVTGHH
The note with it: kinase HIPK4; 1 µmol/L single concentration; read-out: %-inhibition at 1 µmol/L, HIPK4.

For assay [4], the target named is panel of 255 wild-type kinases (Homo sapiens, UniProt Q00535). The note with it: CDK5/p25 kinase assay; 1 µmol/L single concentration; read-out: %-inhibition CDK5/p25.
Assay [5] deals with T2, panel of 255 wild-type kinases (Homo sapiens, UniProt Q9UL54).
T2 sequence (Q9UL54 1-1235): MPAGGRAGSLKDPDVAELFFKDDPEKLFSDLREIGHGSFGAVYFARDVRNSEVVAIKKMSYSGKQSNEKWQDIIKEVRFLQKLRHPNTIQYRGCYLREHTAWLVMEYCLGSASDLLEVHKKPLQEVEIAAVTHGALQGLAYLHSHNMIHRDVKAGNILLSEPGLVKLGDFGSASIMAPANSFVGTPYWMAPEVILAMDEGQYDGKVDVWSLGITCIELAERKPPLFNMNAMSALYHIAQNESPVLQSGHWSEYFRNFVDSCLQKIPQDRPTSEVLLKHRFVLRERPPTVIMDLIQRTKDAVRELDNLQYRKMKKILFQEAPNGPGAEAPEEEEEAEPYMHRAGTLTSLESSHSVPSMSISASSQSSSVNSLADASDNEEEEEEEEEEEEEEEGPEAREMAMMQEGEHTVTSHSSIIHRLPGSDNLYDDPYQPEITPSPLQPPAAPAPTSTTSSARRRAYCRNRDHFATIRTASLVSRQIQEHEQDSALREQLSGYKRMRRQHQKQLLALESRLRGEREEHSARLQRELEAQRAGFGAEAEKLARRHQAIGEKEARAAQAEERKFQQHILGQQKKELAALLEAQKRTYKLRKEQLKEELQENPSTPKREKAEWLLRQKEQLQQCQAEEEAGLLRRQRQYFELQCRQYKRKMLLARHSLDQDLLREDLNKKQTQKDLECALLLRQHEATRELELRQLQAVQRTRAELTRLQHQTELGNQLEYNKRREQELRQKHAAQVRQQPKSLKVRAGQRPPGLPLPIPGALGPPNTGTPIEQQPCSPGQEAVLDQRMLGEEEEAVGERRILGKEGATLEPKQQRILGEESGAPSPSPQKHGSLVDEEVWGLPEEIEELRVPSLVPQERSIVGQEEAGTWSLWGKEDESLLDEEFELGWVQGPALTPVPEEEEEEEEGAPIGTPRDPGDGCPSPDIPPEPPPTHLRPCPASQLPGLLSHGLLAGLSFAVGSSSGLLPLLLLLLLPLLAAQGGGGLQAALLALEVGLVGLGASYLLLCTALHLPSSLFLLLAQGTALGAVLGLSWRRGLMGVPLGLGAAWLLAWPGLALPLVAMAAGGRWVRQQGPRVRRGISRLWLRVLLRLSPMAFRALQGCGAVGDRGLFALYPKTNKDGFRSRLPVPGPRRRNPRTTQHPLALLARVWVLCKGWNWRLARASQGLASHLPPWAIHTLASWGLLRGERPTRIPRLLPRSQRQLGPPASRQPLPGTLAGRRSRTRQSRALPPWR
Conditions: kinase TAOK2; 1 µmol/L single concentration; read-out: %-inhibition at 1 µmol/L, TAOK2.

Assay [6] deals with panel of 255 wild-type kinases (Homo sapiens, UniProt Q86V86). The note with it: kinase PIM3; 1 µmol/L single concentration; read-out: %-inhibition at 1 µmol/L, PIM3.
In assay [7] the target is panel of 255 wild-type kinases (Homo sapiens, UniProt Q00526). The note with it: CDK3/CycE1 kinase assay; 1 µmol/L single concentration; read-out: %-inhibition CDK3/CycE1.
Assay [8] deals with T3, panel of 255 wild-type kinases (Homo sapiens, UniProt Q16566).
T3 sequence (Q16566 1-473): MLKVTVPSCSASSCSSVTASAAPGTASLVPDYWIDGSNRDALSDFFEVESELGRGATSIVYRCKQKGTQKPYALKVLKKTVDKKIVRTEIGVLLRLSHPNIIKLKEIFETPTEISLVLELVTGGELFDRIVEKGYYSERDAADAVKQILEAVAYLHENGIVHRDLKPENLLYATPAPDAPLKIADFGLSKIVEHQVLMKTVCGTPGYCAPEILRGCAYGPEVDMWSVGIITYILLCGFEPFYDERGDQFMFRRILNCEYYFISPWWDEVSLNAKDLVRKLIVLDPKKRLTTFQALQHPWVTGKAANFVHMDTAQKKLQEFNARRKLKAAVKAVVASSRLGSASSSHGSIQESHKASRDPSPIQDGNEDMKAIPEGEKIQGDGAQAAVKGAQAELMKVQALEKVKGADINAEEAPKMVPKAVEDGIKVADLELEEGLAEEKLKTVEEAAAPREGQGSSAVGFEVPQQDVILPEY
Conditions: CaMK4 kinase assay; 1 µmol/L single concentration; read-out: %-inhibition CaMK4.

As for `Cn1cnc2c(F)c(Nc3ccc(Br)cc3F)c(C(=O)NOCCO)cc21` [binimetinib], the inhibition at 1 µM in assay [1] is 1.69%; in assay [2], 4.56%; in assay [3], -3.77%; in assay [4], -21%; in assay [5], 0.465%; in assay [6], 5%. The figures for the inhibition at 1 µM in assay [7] and in assay [8] were -4.57% and 2.67%, respectively.
`COc1ccc(CN2C3CC2CN(c2ccc(-c4cc(OCC(C)(C)O)cn5ncc(C#N)c45)cn2)C3)cn1` [selpercatinib]: the inhibition at 1 µM in assay [1] was 26%; in assay [2], 100%; in assay [3], 21%; in assay [4], -8.52%; in assay [5] it was 5.33%; in assay [6], -2.65%. Besides, the inhibition at 1 µM in assay [7] was 3.49%; in assay [8], -2.54%.
Take `CO[C@]1(C(=O)N[C@@H](C)c2ccc(-n3cc(F)cn3)nc2)CC[C@H](c2nc(C)cc(Nc3cc(C)[nH]n3)n2)CC1` [pralsetinib]: the inhibition at 1 µM in assay [1] is 53%; in assay [2], 98%; in assay [3], 44%; in assay [4], 43%; in assay [5] it was 14%; in assay [6] it was -0.165%. The inhibition at 1 µM in assay [7] was 42%; in assay [8], 0.271%.
Consider `C[C@H]1Oc2cc(cnc2N)-c2c(nn(C)c2C#N)CN(C)C(=O)c2ccc(F)cc21` [lorlatinib], for which the inhibition at 1 µM in assay [1] was 6.55%; in assay [2], 5.32%; in assay [3], 2.62%; in assay [4], -9%; in assay [5], -1.11%; in assay [6], -6%. Further, the inhibition at 1 µM in assay [7] stood at 3%; in assay [8], 1.56%.
Take `CCn1c(=O)c(-c2cc(NC(=O)Nc3ccccc3)c(F)cc2Br)cc2cnc(NC)cc21` [ripretinib]: the inhibition at 1 µM was -10% in assay [1]; 72% in assay [2]; 98% in assay [3]; -19% in assay [4]; 89% in assay [5]; 1.11% in assay [6]. Further, the inhibition at 1 µM is -4.34% in assay [7] and 1.71% in assay [8].
As to `Cc1nc(NC(=O)N2CCC[C@H]2C(N)=O)sc1-c1ccnc(C(C)(C)C(F)(F)F)c1` [alpelisib], the inhibition at 1 µM in assay [1] was -3%; in assay [2] it was 7%; in assay [3], 64%; in assay [4], -14%; in assay [5], -1.44%; in assay [6] it was -13%. In addition, the inhibition at 1 µM in assay [7] was -4%; in assay [8], -7%.
Take `FC(F)(F)c1ccc(CNc2ccc(Cc3c[nH]c4ncc(Cl)cc34)cn2)cn1` [pexidartinib]: the inhibition at 1 µM in assay [1] is -9%; in assay [2], 62%; in assay [3], 52%; in assay [4], -21%; in assay [5] it was 4%; in assay [6], 4.68%. For the same compound, the inhibition at 1 µM in assay [7] is -1.23%; in assay [8], 4%.
Consider `CCc1nc(C(N)=O)c(Nc2ccc(N3CCC(N4CCN(C)CC4)CC3)c(OC)c2)nc1NC1CCOCC1` [gilteritinib], for which the inhibition at 1 µM in assay [1] was 71%; in assay [2], 61%; in assay [3], 99%; in assay [4] it was 25%; in assay [5] it was 9%; in assay [6], 23%. Further, the inhibition at 1 µM was 7% in assay [7] and 18% in assay [8].
In the case of `O=C(Nc1cnn2ccc(N3CCC[C@@H]3c3cc(F)ccc3F)nc12)N1CC[C@H](O)C1` [larotrectinib], the inhibition at 1 µM in assay [1] was -4%; in assay [2], -6.46%; in assay [3], 6%; in assay [4] it was -22%; in assay [5], 3.76%; in assay [6] it was -5.31%. Further, the inhibition at 1 µM worked out at 1.79% in assay [7] and 0.861% in assay [8].
